Patent publication US5998426A, “9,10 disubstituted camptothecin derivatives with antitumor activity” (Pharmacia & Upjohn S.p.A., priority 1996, dated 1999)

System: L1210 cells (murine lymphocytic leukemia)
Assay: Cytotoxic activity in vitro on L1210 cells (50% inhibition of cellular growth) after 48 h continuous treatment
Format: cell-based
Settings: Mus musculus, total cells counted with Coulter Counter, DMSO final concentration 0.5%, read-out: IC50 (concentration inhibiting 50% of cell growth)
Protocol: The IC50 was determined for each compound of formula (Ia), (Ib) and (Ic) from dose-response curves counting the total number of cells with a Coulter Counter (Kontron mod. ZM).
The tested compounds were dissolved in dimethylsulfoxide (DMSO) at a final concentration of 0.5%.

Row | Compound | IC50 [ng/mL]
1 | CCc1c2c(nc3ccc(OS(=O)(=O)c4ccc(C)cc4)c(N)c13)-c1cc3c(c(=O)n1C2)COC(=O)[C@]3(O)CC [Formula (Ic), 7-ethyl-9-amino-10-(p-toluenesulfonyloxy)-20(S)-camptothecin] | 4.6 ± 0.1
2 | CC[C@@]1(O)C(=O)OCc2c1cc1n(c2=O)Cc2cc3c(N)c(OS(=O)(=O)c4cccc5ccccc45)ccc3nc2-1 [Formula (Ia), 9-amino-10-(1-naphthylsulfonyloxy)-20(S)-camptothecin] | 2.2 ± 0.3
3 | CC[C@@]1(O)C(=O)OCc2c1cc1n(c2=O)Cc2cc3c(N)c(OS(=O)(=O)c4ccccc4)ccc3nc2-1 [Formula (Ib), 9-amino-10-phenylsulfonyloxy-20(S)-camptothecin] | 6.8 ± 0.4
